In PubChem BioAssay (NCI) one finds TGI data, which are given here for twelve molecules.

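Tested at 5 concentrations; 48 h exposure; 96-well plates; endpoints linearly interpolated, else capped at highest concentration. TGI denotes the concentration required for complete inhibition of growth.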 Where only a bound is given, the exact number is not on record here.

Some test systems named below: OVCAR-3 ovarian; UO-31 renal; MDA-N; UACC-257 melanoma; MDA-MB-435; SK-OV-3 ovarian; CAKI-1 renal; CCRF-CEM leukemia; NCI-H522 lung; OVCAR-5 ovarian.
Assay in all cases: DTP human tumour cell line panel, 48 h

The TGI is the concentration giving total growth inhibition.

As to `Clc1ccc(N=C/C=C/Nc2ccc(Cl)cn2)nc1`, the TGI stood at 26.6 µM with OVCAR-3 ovarian; 29.2 µM in the assay with UO-31 renal; 28.4 µM in the assay with MDA-N; 32.3 µM in the assay with UACC-257 melanoma; 27.6 µM in the assay with MDA-MB-435; 36.6 µM with SK-OV-3 ovarian. Further, the TGI in the assay with CAKI-1 renal is 25.1 µM; in the assay on CCRF-CEM leukemia, 9.41 µM; with NCI-H522 lung, 28.4 µM; in the assay on OVCAR-5 ovarian, 30 µM.

Regarding `CSc1ccc2c(cc1=O)[C@@H](NC(C)=O)CCc1cc(O)c(O)c(O)c1-2`, the total growth inhibition concentration (TGI) in the assay with OVCAR-3 ovarian was 34.2 µM; in the assay on UO-31 renal, 42.8 µM; in the assay on MDA-N, 61.1 µM; in the assay on UACC-257 melanoma, greater than 100 µM; in the assay on MDA-MB-435, 29.9 µM; in the assay with SK-OV-3 ovarian, greater than 100 µM. Besides, the TGI with CAKI-1 renal is greater than 100 µM; with CCRF-CEM leukemia, greater than 100 µM; in the assay on NCI-H522 lung, 39.3 µM; in the assay on OVCAR-5 ovarian, 35.9 µM.

For `O=C(O)CC(C(=O)O)c1ccccc1[N+](=O)[O-]` (stereo not given), the total growth inhibition concentration (TGI) with OVCAR-3 ovarian, with UO-31 renal, in the assay with MDA-N, with UACC-257 melanoma, with MDA-MB-435 and with SK-OV-3 ovarian was greater than 100 µM in each case. Also, the TGI in the assay with CAKI-1 renal, with CCRF-CEM leukemia, with NCI-H522 lung and in the assay with OVCAR-5 ovarian was greater than 100 µM each time.

In the case of `O=c1c2ccccc2nc2n1NC(c1c(Cl)cccc1Cl)N2c1cccc(Cl)c1` (stereo not given), the TGI in the assay on OVCAR-3 ovarian was 54.2 µM; in the assay with UO-31 renal, 7.39 µM; in the assay on MDA-N, greater than 100 µM; with UACC-257 melanoma, greater than 100 µM; in the assay on MDA-MB-435 it was greater than 100 µM; in the assay with SK-OV-3 ovarian it was 6.81 µM. The TGI was 47.2 µM in the assay with CAKI-1 renal, greater than 100 µM in the assay on CCRF-CEM leukemia, 28.8 µM in the assay on NCI-H522 lung and 19.1 µM with OVCAR-5 ovarian.

For `Cc1ccc(/C=C2\CN(C)CC3=C2OC(N)=C(C#N)C3c2ccc(C)cc2)cc1` (stereo not given), the TGI was 29.8 µM in the assay with OVCAR-3 ovarian; 53.4 µM with UO-31 renal; 38.1 µM in the assay with MDA-N; 43.1 µM with UACC-257 melanoma; 34.7 µM with MDA-MB-435; 35.3 µM in the assay on SK-OV-3 ovarian. The TGI with CAKI-1 renal was 74.6 µM; in the assay on CCRF-CEM leukemia it was 22 µM; with NCI-H522 lung, greater than 49.9 µM; in the assay on OVCAR-5 ovarian it was 55.7 µM.

As for `CCOc1c2ccsc2c(OCC)c2ccsc12`, the TGI in the assay with OVCAR-3 ovarian is 61.1 µM; in the assay with UO-31 renal, greater than 100 µM; in the assay with MDA-N, 4.83 µM; with UACC-257 melanoma it was greater than 100 µM; in the assay on MDA-MB-435 it was 3.15 µM; with SK-OV-3 ovarian, greater than 100 µM. The TGI in the assay on CAKI-1 renal was greater than 100 µM; with CCRF-CEM leukemia, greater than 100 µM; with NCI-H522 lung, greater than 28.9 µM; with OVCAR-5 ovarian it was greater than 100 µM.

With `CCOC(=O)c1c(C)n(Cc2ccccc2)c(=O)c2ccccc2c(=O)c2c(=O)ccc(=O)c1=2`, the TGI with OVCAR-3 ovarian is greater than 100 µM; with UO-31 renal, 34.7 µM; in the assay on MDA-N, greater than 100 µM; with UACC-257 melanoma it was greater than 100 µM; with MDA-MB-435 it was greater than 100 µM; in the assay on SK-OV-3 ovarian, greater than 100 µM. Also, the concentration for total growth inhibition (TGI) in the assay with CAKI-1 renal was greater than 100 µM; in the assay on CCRF-CEM leukemia, greater than 100 µM; in the assay on NCI-H522 lung, 62.8 µM; in the assay on OVCAR-5 ovarian, greater than 100 µM.

On to `COc1cc(NS(C)(=O)=O)ccc1NCc1cnc2ccc3[nH]c(C)ccc3c12`, for which the total growth inhibition concentration (TGI) in the assay with OVCAR-3 ovarian was 91.9 µM; in the assay with UO-31 renal, 60.6 µM; in the assay on MDA-N, greater than 100 µM; in the assay with UACC-257 melanoma, greater than 100 µM; in the assay on MDA-MB-435, 80.4 µM; in the assay on SK-OV-3 ovarian it was greater than 100 µM. The total growth inhibition concentration (TGI) with CAKI-1 renal was 68.8 µM; in the assay on CCRF-CEM leukemia it was 67.2 µM; with NCI-H522 lung it was greater than 100 µM; with OVCAR-5 ovarian, greater than 100 µM.

For the molecule `NC(=O)NC(=O)c1cnccn1`, the TGI in the assay on OVCAR-3 ovarian, with UO-31 renal, in the assay with MDA-N, with UACC-257 melanoma, with MDA-MB-435 and in the assay with SK-OV-3 ovarian was greater than 100 µM throughout. Besides, the TGI in the assay with CAKI-1 renal, in the assay with CCRF-CEM leukemia, in the assay with NCI-H522 lung and in the assay with OVCAR-5 ovarian was greater than 100 µM in each case.

Take `Cc1[nH]c2ncn3nc(C(Cl)(Cl)Cl)nc3c2c1Cc1ccccc1`: the TGI was greater than 100 µM in the assay with OVCAR-3 ovarian; 23.3 µM with UO-31 renal; greater than 100 µM in the assay with MDA-N; greater than 100 µM in the assay with UACC-257 melanoma; greater than 100 µM in the assay on MDA-MB-435; greater than 100 µM in the assay on SK-OV-3 ovarian. The concentration for total growth inhibition (TGI) with CAKI-1 renal, with CCRF-CEM leukemia, in the assay on NCI-H522 lung and in the assay on OVCAR-5 ovarian was greater than 100 µM throughout.

On to `CN1CCCN2CCN(C)CCN(CC1)CC2`, for which the TGI with OVCAR-3 ovarian, in the assay on UO-31 renal, in the assay on MDA-N, in the assay on UACC-257 melanoma, with MDA-MB-435 and with SK-OV-3 ovarian was greater than 100 µM throughout. Further, the TGI in the assay on CAKI-1 renal, with CCRF-CEM leukemia, in the assay on NCI-H522 lung and in the assay on OVCAR-5 ovarian was greater than 100 µM in each case.

Consider `Cc1ccc2c(c1)SSSSS2`, for which the TGI in the assay on OVCAR-3 ovarian was 40.5 µM; in the assay on UO-31 renal it was 33 µM; in the assay with MDA-N it was 87.1 µM; with UACC-257 melanoma, 38.5 µM; in the assay with MDA-MB-435, 38.8 µM; with SK-OV-3 ovarian, 39.8 µM. Besides, the total growth inhibition concentration (TGI) with CAKI-1 renal amounted to 36 µM; in the assay with CCRF-CEM leukemia it was 17 µM; with NCI-H522 lung, 40.6 µM; with OVCAR-5 ovarian it was 46.9 µM.
